Patent US7238694B2, “Rifamycin imino derivatives effective against drug-resistant microbes” (Cumbre Pharmaceuticals, Inc., priority 2004, dated 2007)
Converted amounts (≈) assume the structure as drawn. Where two headings read alike, the source gives them in different places.

Legend:
Type in all cases: cell-based
[1] = system: Staphylococcus aureus ATCC29213; assay: MIC, microbroth dilution (NCCLS)
[2] = system: Staphylococcus aureus ATCC29213 rpoB^H418Y; assay: microbe, parasite or virus in culture
[3] = system: Staphylococcus aureus MT1222 gyrA^A116E grlB^S80F; assay: microbe, parasite or virus in culture
[4] = system: Staphylococcus epidermidis ATCC12228; assay: MIC, microbroth dilution (NCCLS)
[5] = system: Streptococcus pneumoniae ATCC6303; assay: MIC, microbroth dilution (NCCLS)
[6] = system: Streptococcus pyogenes ATCC19615; assay: MIC, microbroth dilution (NCCLS)
[7] = system: Haemophilus influenzae ATCC10211; assay: MIC, microbroth dilution (NCCLS)
[8] = system: Staphylococcus aureus ATCC29213 rpoB^D417Y; assay: microbe, parasite or virus in culture
[9] = system: Enterococcus faecalis ATCC29212; assay: MIC, microbroth dilution (NCCLS)
[10] = system: Escherichia coli ATCC25922; assay: MIC, microbroth dilution (NCCLS)
[11] = system: Mycobacterium smegmatis ATCC700084; assay: MIC, microbroth dilution (NCCLS)
[12] = MIC, panel of rifampin-susceptible Gram-positive strains; settings: text summary over five rifampin-susceptible Gram-positive strains
[13] = system: H. influenzae ATCC 10211 and E. coli ATCC 25922; assay: MIC, Gram-negative bacteria; settings: text summary over two Gram-negative strains
[14] = rifS strain, Cation-Adjusted Mueller-Hinton Broth, 37° C., read-out: MIC
[15] = Staphylococcus aureus, ATCC29213, rifR strain, Cation-Adjusted Mueller-Hinton Broth, 37° C., read-out: MIC
[16] = cipR strain, Cation-Adjusted Mueller-Hinton Broth, 37° C., read-out: MIC
[17] = rifS strain, THY Broth with 1 mg/mL catalase, 5% CO2, 37° C., read-out: MIC
[18] = rifS strain, THY Broth, 37° C., read-out: MIC
[19] = rifS strain, BHI Broth with NAD and hematin, 37° C., read-out: MIC
[20] = Staphylococcus aureus, ATCC29213
[21] = rifR strain, Cation-Adjusted Mueller-Hinton Broth, 37° C.

Row | Compound | MIC [1, 14] [µg/mL] | MIC [2, 15] [µg/mL] | MIC [3, 16] [µg/mL] | MIC [4, 14] [µg/mL] | MIC [5, 17] [µg/mL] | MIC [6, 18] [µg/mL] | MIC [7, 19] [µg/mL] | further results
1 | CO[C@H]1/C=C/O[C@@]2(C)Oc3c(C)c(O)c4c(O)c(c(/C=N/N5CCN(c6nc7c(cc6F)c(=O)c(C(=O)O)cn7C6CC6)CC5)c(O)c4c3C2=O)NC(=O)/C(C)=C\C=C\[C@H](C)[C@H](O)[C@@H](C)[C@@H](O)[C@@H](C)[C@H](OC(C)=O)[C@@H]1C [Example 35, 3-[4-(3-Carboxy-1-cyclopropyl-6-fluoro-4-oxo-1,4-dihydro-[1,8]naphthyridine-7-yl)-piperazin-1-yl-aminomethylenyl]-rifamycin SV] | 0.008 to 1 (≈ 0.00758 to 0.948 µM) | 0.06 to 16 (≈ 0.0569 to 15.2 µM) | 0.008 to 0.125 (≈ 0.00758 to 0.118 µM) | 0.008 to 0.1 (≈ 0.00758 to 0.0948 µM) | 0.008 to 0.06 (≈ 0.00758 to 0.0569 µM) | 0.008 to 0.03 (≈ 0.00758 to 0.0284 µM) | 0.125 to 4 (≈ 0.118 to 3.79 µM) | –
2 | CO[C@H]1/C=C/O[C@@]2(C)Oc3c(C)c(O)c4c(O)c(c(/C=N/N5CCN(c6c(F)cc7c(=O)c(C(=O)O)cn(C8CC8)c7c6Cl)CC5)c(O)c4c3C2=O)NC(=O)/C(C)=C\C=C\[C@H](C)[C@H](O)[C@@H](C)[C@@H](O)[C@@H](C)[C@H](OC(C)=O)[C@@H]1C [Example 40, 3-[4-(3-Carboxy-8-chloro-1-cyclopropyl-6-fluoro-4-oxo-1,4-dihydroquinolin-7-yl)-piperazin-1-yl-aminomethylenyl]-rifamycin SV] | 0.008 to 1 (≈ 0.00735 to 0.919 µM) | 0.06 to 16 (≈ 0.0551 to 14.7 µM) | 0.008 to 0.125 (≈ 0.00735 to 0.115 µM) | 0.008 to 0.1 (≈ 0.00735 to 0.0919 µM) | 0.008 to 0.06 (≈ 0.00735 to 0.0551 µM) | 0.008 to 0.03 (≈ 0.00735 to 0.0276 µM) | 0.125 to 4 (≈ 0.115 to 3.67 µM) | –
3 | COc1c(N2CCC(C(C)N/N=C/c3c4c(O)c5c(O)c(C)c6c(c5c3O)C(=O)[C@@](C)(O/C=C/[C@H](OC)[C@@H](C)[C@@H](OC(C)=O)[C@H](C)[C@H](O)[C@H](C)[C@@H](O)[C@@H](C)/C=C/C=C(/C)C(=O)N4)O6)C2)c(F)cc2c(=O)c(C(=O)O)cn(C3CC3)c12 (stereo partly shown) [Example 42, 3-({1-[1-(3-Carboxy-1-cyclopropyl-6-fluoro-8-methoxy-4-oxo-1,4-dihydro-quinolin-7-yl)-pyrrolidin-3-yl]-ethyl}-hydrazinomethylenyl)-rifamycin SV] | 0.008 to 1 (≈ 0.00719 to 0.899 µM) | 0.06 to 16 (≈ 0.0539 to 14.4 µM) | 0.008 to 0.125 (≈ 0.00719 to 0.112 µM) | 0.008 to 0.1 (≈ 0.00719 to 0.0899 µM) | 0.008 to 0.06 (≈ 0.00719 to 0.0539 µM) | 0.008 to 0.03 (≈ 0.00719 to 0.027 µM) | 0.125 to 4 (≈ 0.112 to 3.6 µM) | –
4 | CO[C@H]1/C=C/O[C@@]2(C)Oc3c(C)c(O)c4c(O)c(c(/C=N/N5CCN(C)CC5)c(O)c4c3C2=O)NC(=O)/C(C)=C\C=C\[C@H](C)[C@H](O)[C@@H](C)[C@@H](O)[C@@H](C)[C@H](OC(C)=O)[C@@H]1C [rifampin, reference compound] | – | – | – | – | – | – | – | MIC [1]: 0.008 µg/mL (≈ 0.00972 µM); MIC [2, 20]: 7.8 µg/mL (≈ 9.48 µM); MIC [2, 21]: 7.8 µg/mL (≈ 9.48 µM); MIC [8, 20]: > 64 µg/mL; MIC [8, 21]: >64 µg/mL; MIC [3]: 0.004 µg/mL (≈ 0.00486 µM); MIC [4]: 0.03 µg/mL (≈ 0.0365 µM); MIC [5]: 0.061 µg/mL (≈ 0.0741 µM); MIC [6]: 0.013 µg/mL (≈ 0.0158 µM); MIC [9]: 0.98 µg/mL (≈ 1.19 µM); MIC [7]: 0.24 µg/mL (≈ 0.292 µM); MIC [10]: 16 µg/mL (≈ 19.4 µM); MIC ([11]; Mycolicibacterium smegmatis, ATCC700084): 64 µg/mL (≈ 77.8 µM); MIC ([11]; rifS strain, Middlebrook Broth plus ADC Enrichment, 37° C.): 64 µg/mL; MIC [12]: 0.008 to 1 µg/mL (≈ 0.00972 to 1.22 µM); MIC [13]: 0.24 to 16 µg/mL (≈ 0.292 to 19.4 µM)
